Test results: patent US5332757A, “Oxime derivatives” (Zeneca Limited, priority 1992, dated 1994)

Tests used:
5-LO [1] = target: T1, 5-LO (Rattus norvegicus, UniProt P12527); assay: test c) in vivo zymosan-induced liberation of LTB4 in rat air pouch; parameters: species or system male rats; details: 3 h; test c), oral
T1 construct: within an air pouch generated within the subcutaneous tissue of the back of male rats; from tissue; host or cells: living male rats, cells of the zymosan-inflamed subcutaneous air pouch
T1 sequence (P12527 1-673): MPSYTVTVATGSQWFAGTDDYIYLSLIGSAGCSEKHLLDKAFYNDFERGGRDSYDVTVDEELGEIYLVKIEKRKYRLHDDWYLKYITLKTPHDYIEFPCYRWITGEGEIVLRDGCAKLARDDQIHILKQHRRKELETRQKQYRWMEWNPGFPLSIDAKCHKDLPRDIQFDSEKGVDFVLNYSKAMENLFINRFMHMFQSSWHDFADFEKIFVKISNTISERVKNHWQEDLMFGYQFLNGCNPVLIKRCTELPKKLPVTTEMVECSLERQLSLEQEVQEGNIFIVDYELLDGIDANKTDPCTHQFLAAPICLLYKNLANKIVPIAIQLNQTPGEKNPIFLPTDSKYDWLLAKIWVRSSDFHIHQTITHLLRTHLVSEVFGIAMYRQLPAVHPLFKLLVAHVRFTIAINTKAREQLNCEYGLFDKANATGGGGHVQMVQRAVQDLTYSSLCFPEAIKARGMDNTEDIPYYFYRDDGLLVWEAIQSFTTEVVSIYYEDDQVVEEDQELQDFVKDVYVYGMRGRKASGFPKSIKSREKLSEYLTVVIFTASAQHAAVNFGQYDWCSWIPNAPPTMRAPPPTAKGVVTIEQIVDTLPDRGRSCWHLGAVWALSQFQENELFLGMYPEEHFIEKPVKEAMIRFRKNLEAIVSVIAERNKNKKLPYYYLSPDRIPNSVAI
Experimental: c) An in vivo system involving measuring the effects of a test compound administered orally against the liberation of LTB4 induced by zymosan within an air pouch generated within the subcutaneous tissue of the back of male rats. The rats are anaesthetised and air pouches are formed by the injection of sterile air (20 ml). A further injection of air (10 ml) is similarly given after 3 days. At 6 days after the initial air injection the test compound is administered (usually orally as the suspension produced when a solution of the test compound in dimethylsulphoxide is added to hydroxypropylmethylcellulose), followed by the intrapouch injection of zymosan (1 ml of a 1% suspension in physiological saline). After 3 hours the rats are killed, the air pouches are lavaged with physiological saline, and the specific radioimmunoassay described above is used to assay LTB4 in the washings. This test provides an indication of inhibitory effects against 5-LO in an inflammatory milieu.

5-LO [2] = target: T2, 5-LO (Homo sapiens, UniProt P09917); assay: test a) in vitro assay, heparinised human blood challenged with calcium ionophore A23187, LTB4 radioimmunoassay; format: cell-based
T2 construct: incubating a test compound with heparinised human blood, prior to challenge with the calcium ionophore A23187; from tissue; host or cells: heparinised human blood (endogenous enzyme of the blood cells)
T2 sequence (P09917 1-674): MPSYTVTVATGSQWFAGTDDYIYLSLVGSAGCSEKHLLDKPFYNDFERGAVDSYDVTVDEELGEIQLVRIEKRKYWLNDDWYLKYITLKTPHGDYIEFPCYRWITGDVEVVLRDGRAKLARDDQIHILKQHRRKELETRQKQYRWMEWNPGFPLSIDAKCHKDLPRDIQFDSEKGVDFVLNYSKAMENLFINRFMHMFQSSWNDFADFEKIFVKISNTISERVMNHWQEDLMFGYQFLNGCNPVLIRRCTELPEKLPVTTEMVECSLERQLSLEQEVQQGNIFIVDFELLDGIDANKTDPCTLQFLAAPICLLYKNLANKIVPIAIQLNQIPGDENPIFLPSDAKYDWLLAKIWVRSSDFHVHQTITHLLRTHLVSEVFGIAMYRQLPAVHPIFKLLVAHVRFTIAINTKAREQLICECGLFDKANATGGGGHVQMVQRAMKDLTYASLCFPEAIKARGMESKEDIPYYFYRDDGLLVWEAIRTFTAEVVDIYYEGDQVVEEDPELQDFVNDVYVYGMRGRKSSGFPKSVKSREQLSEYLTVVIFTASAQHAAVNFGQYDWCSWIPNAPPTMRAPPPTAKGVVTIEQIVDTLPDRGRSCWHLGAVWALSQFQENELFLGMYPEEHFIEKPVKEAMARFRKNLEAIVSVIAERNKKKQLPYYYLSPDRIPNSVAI
Experimental: a) An in vitro assay system involving incubating a test compound with heparinised human blood, prior to challenge with the calcium ionophore A23187 and then indirectly measuring the inhibitory effects on 5-LO by assaying the amount of LTB4 using specific radioimmunoassays described by Carey and Forder (Prostaglandins, Leukotrienes Med., 1986, 22, 57; Prostaglandins, 1984, 28, 666; Brit. J. Pharmacol., 1985, 84, 34P) which involves the use of a protein-LTB4 conjugate produced using the procedure of Young et alia (Prostaglandins, 1983, 26(4), 605-613). The effects of a test compound on the enzyme cyclooxygenase (which is involved in the alternative metabolic pathway for arachidonic acid and gives rise to prostaglandins, thromboxanes and related metabolites) may be measured at the same time using the specific radioimmunoassay for thromboxane B2 (TxB2) described by Carey and Forder (see above). This test provides an indication of the effects of a test compound against 5-LO and also cyclooxygenase in the presence of blood cells and proteins. It permits the selectivity of the inhibitory effect on 5-LO or cyclooxygenase to be assessed.

Row | ED50 (5-LO [1]) [mg/kg] | IC50 (5-LO [2]) [nM] | SMILES
1 | ~0.05 | 40 | CO[C@]1(c2cc(F)cc(Sc3ccc(/C(C)=N/O)cc3)c2)CCO[C@@H](C)C1 [Example 26, (E)-4'-{5-fluoro-3-[(2S,4R)-4-methoxy-2-methyltetrahydropyran-4-yl]phenylthio}acetophenone oxime]
2 | ~0.5 | 110 | CO/N=C(\C)c1ccc(Sc2cc(F)cc(C3(OC)CCOCC3)c2)cc1 [Example 2, (E)-4'-[5-fluoro-3-(4-methoxytetrahydropyran-4-yl)phenylthio]acetophenone oxime O-methyl ether]
3 | ~0.5 | 30 | COC1(c2cc(F)cc(Sc3ccc(/C(C)=N/OCC#N)cc3)c2)CCOCC1 [Example 5, (E)-4'-[5-fluoro-3-(4-methoxytetrahydropyran-4-yl)phenylthio]acetophenone oxime O-cyanomethyl ether]
